In US20220024945A1, “THERAPEUTIC COMPOUNDS AND COMPOSITIONS, AND METHODS OF USE THEREOF” (Genentech, Inc., priority 2017, published 2022):
Like-named read-outs stand apart in the source and are kept apart here.

Assays:
[1] = target: isolated recombinant JAK1 kinase domain (Homo sapiens, UniProt P23458); assay: JAK enzyme assay (Caliper LabChip), JAK1 kinase domain; type: biochemical; settings: ATP 25 μM; 1.5 nM JAK1; Morrison tight binding model
[2] = test system: JAK1-dependent STAT6 phosphorylation downstream of IL-13 stimulation, BEAS-2B cells; assay: JAK1 pathway assay in cell lines: P-STAT6 in BEAS-2B cells + IL13; type: cell-based; settings: BEAS-2B human bronchial epithelial cells, 1 hr compound preincubation, read-out: P-STAT6 BEAS2B + IL13 IC50
Description: JAK1 Pathway Assay in Cell Lines was Carried Out as Follows:
Inhibitor potency (EC50) was determined in cell-based assays designed to measure JAK1 dependent STAT phosphorylation. As noted above, inhibition of IL-4, IL-13, and IL-9 signaling by blocking the Jak/Stat signaling pathway can alleviate asthmatic symptoms in pre-clinical lung inflammation models (Mathew et al., 2001, J Exp Med 193(9): 1087-1096; Kudlacz et. al., 2008, Eur J. Pharmacol 582(1-3): 154-161).
In one assay approach, TF-1 human erythroleukemia cells obtained from the American Type Culture Collection (ATCC; Manassas, Va.) were used to measure JAK1-dependent STAT6 phosphorylation downstream of IL-13 stimulation. Prior to use in the assays, TF-1 cells were starved of GM-CSF overnight in OptiMEM medium (Life Technologies, Grand Island, N.Y.) supplemented with 0.5% charcoal/dextran stripped fetal bovine serum (FBS), 0.1 mM non-essential amino acids (NEAA), and 1 mM sodium pyruvate. The assays were run in 384-well plates in serum-free OptiMEM medium using 300,000 cells per well. In a second assay approach, BEAS-2B human bronchial epithelial cells obtained from ATCC were plated at 100,000 cells per well of a 96-well plate one day prior to the experiment. The BEAS-2B assay was run in complete growth medium (bronchial epithelial basal medium plus bulletkit; Lonza; Basel, Switzerland).
Test compounds were serially diluted 1:2 in DMSO and then diluted 1:50 in medium just before use. Diluted compounds were added to the cells, for a final DMSO concentration of 0.2%, and incubated for 30 m (for the TF-1 assay) or 1 hr (for the BEAS-2B assay) at 37° C. Then, cells were stimulated with human recombinant cytokine at their respective EC90 concentrations, as previously determined for each individual lot. Cells were stimulated with […] (R&D Systems, Minneapolis, Minn.) for 15 m/at 37° C. The TF-1 cell reactions were stopped by the direct addition of 10× lysis buffer (Cell Signaling Technologies, Danvers, Mass.), whereas the BEAS-2B cell incubations were halted by the removal of medium and addition of 1× lysis buffer. The resultant samples were frozen in the plates at −80° C. Compound mediated inhibition of STAT6 phosphorylation was measured in the cell lysates using MesoScale Discovery (MSD) technology (Gaithersburg, Md.). EC50 values were determined as the concentration of compound required for 50% inhibition of STAT phosphorylation relative to that measured for the DMSO control.

[3] = target: isolated recombinant JAK2 kinase domain (Homo sapiens, UniProt O60674); assay: JAK enzyme assay (Caliper LabChip), JAK2 kinase domain; settings: ATP 25 μM, 0.2 nM JAK2, Morrison tight binding model
Sequence of isolated recombinant JAK2 kinase domain (O60674 849-1124 limits assumed): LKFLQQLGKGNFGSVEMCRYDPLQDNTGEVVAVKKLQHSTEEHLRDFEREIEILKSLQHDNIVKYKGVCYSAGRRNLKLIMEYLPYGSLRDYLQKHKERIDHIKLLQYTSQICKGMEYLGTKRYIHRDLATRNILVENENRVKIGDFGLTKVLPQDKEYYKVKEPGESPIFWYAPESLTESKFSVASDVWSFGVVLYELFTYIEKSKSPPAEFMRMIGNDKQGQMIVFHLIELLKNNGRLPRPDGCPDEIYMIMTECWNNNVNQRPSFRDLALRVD
Description: JAK Enzyme Assays were Carried Out as Follows:
The activity of the isolated recombinant JAK1 and JAK2 kinase domain was measured by monitoring phosphorylation of a peptide derived from JAK3 ([sequence] fluorescently labeled on the N-terminus with 5-carboxyfluorescein) using the Caliper LabChip® technology (Caliper Life Sciences, Hopkinton, Mass.). […] Reactions were incubated at 22° C. in 384-well polypropylene microtiter plates for 30 minutes and then stopped by addition of 25 μL of an EDTA containing solution (100 mM HEPES buffer (pH 7.2), 0.015% Brij-35, 150 mM EDTA), resulting in a final EDTA concentration of 50 mM. After termination of the kinase reaction, the proportion of phosphorylated product was determined as a fraction of total peptide substrate using the Caliper LabChip® 3000 according to the manufacturer's specifications.

Sequence of isolated recombinant JAK1 kinase domain (P23458 875-1153 limits assumed): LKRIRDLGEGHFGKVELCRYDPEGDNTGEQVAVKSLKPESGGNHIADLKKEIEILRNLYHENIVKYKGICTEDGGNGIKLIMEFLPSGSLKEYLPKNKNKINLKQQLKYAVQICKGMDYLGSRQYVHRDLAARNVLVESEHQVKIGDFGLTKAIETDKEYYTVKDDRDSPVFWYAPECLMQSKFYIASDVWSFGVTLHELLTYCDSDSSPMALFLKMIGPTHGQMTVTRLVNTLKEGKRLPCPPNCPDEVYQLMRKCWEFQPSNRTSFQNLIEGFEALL

Compound | Ki [1] [nM] | Ki [3] [nM] | IC50 ([2]; Homo sapiens, BEAS-2B, 1 h) [nM] | IC50 [2] [nM]
O=C(Nc1cn(Cc2cn(C3CCN(C4COC4)CC3)nn2)nc1-c1cc(SC2COC2)ccc1OC(F)F)c1cnn2cccnc12 [Example 17, N-[3-[2-(difluoromethoxy)-5-(oxetan-3-ylsulfanyl)phenyl]-1-[[1-[1-(oxetan-3-yl)-4-piperidyl]triazol-4-yl]methyl]pyrazol-4-yl]pyrazolo[1,5-a]pyrimidine-3-carboxamide] | 0.81 | 0.57 | 130 | –
O=C(Nc1c[nH]nc1-c1cc(SC2CCCC2)ccc1OC(F)F)c1cnn2cccnc12 [Example 7, N-[3-[5-cyclopentylsulfanyl-2-(difluoromethoxy)phenyl]-1H-pyrazol-4-yl]pyrazolo[1,5-a]pyrimidine-3-carboxamide] | 0.76 | 0.37 | 12 | –
CC(C)Sc1ccc(OC(F)F)c(-c2nn(Cc3cn(C4CCN([C@H]5CCOC5)CC4)nn3)cc2NC(=O)c2cnn3cccnc23)c1 (stereo in doubt) [Example 11, N-[3-[2-(difluoromethoxy)-5-isopropylsulfanyl-phenyl]-1-[[1-[1-[rac-(3S)-tetrahydrofuran-3-yl]-4-piperidyl]triazol-4-yl]methyl]pyrazol-4-yl]pyrazolo[1,5-a]pyrimidine-3-carboxamide; formic acid] | 0.69 | 0.49 | 23 | –
O=C(Nc1cn(CCO)nc1-c1cc(SC(CF)CF)ccc1OC(F)F)c1cnn2cccnc12 [Example 22, N-[3-[2-(difluoromethoxy)-5-[2-fluoro-1-(fluoromethyl)ethyl]sulfanyl-phenyl]-1-(2-hydroxyethyl)pyrazol-4-yl]pyrazolo[1,5-a]pyrimidine-3-carboxamide] | 0.32 | 0.19 | 18 | –
O=C(Nc1cn(Cc2cn(C3CCN([C@H]4CCOC4)CC3)nn2)nc1-c1cc(SC2COC2)ccc1OC(F)F)c1cnn2cccnc12 (stereo in doubt) [Example 20, N-[3-[2-(difluoromethoxy)-5-(oxetan-3-ylsulfanyl)phenyl]-1-[[1-[1-[rac-(3S)-tetrahydrofuran-3-yl]-4-piperidyl]triazol-4-yl]methyl]pyrazol-4-yl]pyrazolo[1,5-a]pyrimidine-3-carboxamide; formic acid] | 0.66 | 0.44 | 67 | –
COC(=O)N1CCN(CC2CCN(C(=O)Cn3cc(NC(=O)c4cnn5cccnc45)c(-c4cc(SC(CF)CF)ccc4OC(F)F)n3)CC2)CC1 [Example 18] | 0.4 | 1.3 | 33 | –
CSc1ccc(OC(F)F)c(-c2nn(C3CCOCC3)cc2NC(=O)c2cnn3cccnc23)c1 [Example 16, N-[3-[2-(difluoromethoxy)-5-methylsulfanyl-phenyl]-1-tetrahydropyran-4-yl-pyrazol-4-yl]pyrazolo[1,5-a]pyrimidine-3-carboxamide] | – | 0.91 | 31 | –
Cn1cc(NC(=O)c2cnn3cccnc23)c(-c2cc(SC3COC3)ccc2OC(F)F)n1 [Example 15, N-[3-[2-(difluoromethoxy)-5-(oxetan-3-ylsulfanyl)phenyl]-1-methyl-pyrazol-4-yl]pyrazolo[1,5-a]pyrimidine-3-carboxamide] | – | 0.13 | 14 | –
O=C(Nc1c[nH]nc1-c1cc(SC2CCOC2)ccc1OC(F)F)c1cnn2cccnc12 (centres unmarked) [Example 8, N-[3-[2-(difluoromethoxy)-5-tetrahydrofuran-3-ylsulfanyl-phenyl]-1H-pyrazol-4-yl]pyrazolo[1,5-a]pyrimidine-3-carboxamide] | 0.45 | – | 19 | –

The next lines start with results.

Ki [1] [nM] | Ki [3] [nM] | Compound | IC50 ([2]; Homo sapiens, BEAS-2B, 1 h) [nM] | IC50 [2] [nM]
0.32 | 0.15 | COC(=O)CSc1ccc(OC(F)F)c(-c2n[nH]cc2NC(=O)c2cnn3cccnc23)c1 [Example 43, methyl 2-[4-(difluoromethoxy)-3-[4-(pyrazolo[1,5-a]pyrimidine-3-carbonylamino)-1H-pyrazol-3-yl]phenyl]sulfanylacetate] | 37 | –
0.28 | 0.59 | O=C(Nc1cn(CC(=O)N2CC=CCC2)nc1-c1cc(SC2COC2)ccc1OC(F)F)c1cnn2cccnc12 [Example 25, N-[3-[2-(difluoromethoxy)-5-(oxetan-3-ylsulfanyl)phenyl]-1-[2-(3,6-dihydro-2H-pyridin-1-yl)-2-oxo-ethyl]pyrazol-4-yl]pyrazolo[1,5-a]pyrimidine-3-carboxamide] | 14 | –
1.44 | 1.18 | O=C(Nc1cn(C2CN(C3CC(O)C3)C2)nc1-c1cc(SC2COC2)ccc1OC(F)F)c1cnn2cccnc12 (single isomer, unassigned) [Example 39, N-[3-[2-(difluoromethoxy)-5-(oxetan-3-ylsulfanyl)phenyl]-1-[1-(3-hydroxycyclobutyl)azetidin-3-yl]pyrazol-4-yl]pyrazolo[1,5-a]pyrimidine-3-carboxamide] | 35 | –
1.18 | 1.02 | O=C(Nc1cn(C2CN(C3CC(O)C3)C2)nc1-c1cc(SC2COC2)ccc1OC(F)F)c1cnn2cccnc12 (single isomer, unassigned) [Example 40, N-[3-[2-(difluoromethoxy)-5-(oxetan-3-ylsulfanyl)phenyl]-1-[1-(3-hydroxycyclobutyl)azetidin-3-yl]pyrazol-4-yl]pyrazolo[1,5-a]pyrimidine-3-carboxamide] | – | 45
0.21 | 0.21 | CNC(=O)Cn1cc(NC(=O)c2cnn3cccnc23)c(-c2cc(SC)ccc2OC(F)F)n1 [Example 45, N-[3-[2-(difluoromethoxy)-5-methylsulfanyl-phenyl]-1-[2-(methylamino)-2-oxo-ethyl]pyrazol-4-yl]pyrazolo[1,5-a]pyrimidine-3-carboxamide] | 8 | –
91.5 | 51.7 | O=C(Nc1c[nH]nc1-c1cc(SC2CCCNC2)ccc1OC(F)F)c1cnn2cccnc12 (single isomer, unassigned) [Example 36, N-[3-[2-(difluoromethoxy)-5-(3-piperidylsulfanyl)phenyl]-1H-pyrazol-4-yl]pyrazolo[1,5-a]pyrimidine-3-carboxamide] | – | > 1000
0.46 | 0.22 | O=C(Nc1cn(C2COC2)nc1-c1cc(SC2COC2)ccc1OC(F)F)c1cnn2cccnc12 [Example 24, N-[3-[2-(difluoromethoxy)-5-(oxetan-3-ylsulfanyl)phenyl]-1-(oxetan-3-yl)pyrazol-4-yl]pyrazolo[1,5-a]pyrimidine-3-carboxamide] | 17 | –
0.35 | 0.51 | CNC(=O)Cn1cc(NC(=O)c2cnn3cccnc23)c(-c2cc(SC(F)F)ccc2OC(F)F)n1 [Example 32, N-[3-[2-(difluoromethoxy)-5-(difluoromethylsulfanyl)phenyl]-1-[2-(methylamino)-2-oxo-ethyl]pyrazol-4-yl]pyrazolo[1,5-a]pyrimidine-3-carboxamide] | 14 | –
1.02 | 0.39 | CC(=O)N1CCC(Sc2ccc(OC(F)F)c(-c3n[nH]cc3NC(=O)c3cnn4cccnc34)c2)CC1 [Example 34, N-[3-[5-[(1-acetyl-4-piperidyl)sulfanyl]-2-(difluoromethoxy)phenyl]-1H-pyrazol-4-yl]pyrazolo[1,5-a]pyrimidine-3-carboxamide] | 251 | –
0.34 | 0.72 | O=C(Nc1cn(CC(=O)N2CCC(N3CCOCC3)CC2)nc1-c1cc(SC(F)F)ccc1OC(F)F)c1cnn2cccnc12 [Example 42, N-[3-[2-(difluoromethoxy)-5-(difluoromethylsulfanyl)phenyl]-1-[2-(4-morpholino-1-piperidyl)-2-oxo-ethyl]pyrazol-4-yl]pyrazolo[1,5-a]pyrimidine-3-carboxamide] | 23 | –
9.73 | 3.47 | CN1CCCC(Sc2ccc(OC(F)F)c(-c3n[nH]cc3NC(=O)c3cnn4cccnc34)c2)C1 (single isomer, unassigned) [Example 31, N-[3-[2-(difluoromethoxy)-5-[(1-methyl-3-piperidyl)sulfanyl]phenyl]-1H-pyrazol-4-yl]pyrazolo[1,5-a]pyrimidine-3-carboxamide] | – | –
